According to patent US20230144824A1, “1H-PYRAZOLO[4,3-d]PYRIMIDINE COMPOUNDS AS TOLL-LIKE RECEPTOR 7 (TLR7) AGONISTS” (BRISTOL-MYERS SQUIBB COMPANY, priority 2020, published 2023):
Blank lines part the entries; values can stand above or below the compound they belong to.

How the values were obtained:
[1] = target: T1, human TLR7 (Homo sapiens, UniProt Q9NYK1); assay: Human TLR7 agonist activity assay (HEK-Blue TLR7 SEAP reporter); type: cell-based; conditions: HEK-Blue TLR7 cells, 18 h treatment, average where assay performed multiple times, read-out: hTLR7 Agonism EC50
T1 construct: host or cells: HEK-Blue TLR7 cells (engineered human embryonic kidney cells)
T1 sequence (Q9NYK1 27-1049): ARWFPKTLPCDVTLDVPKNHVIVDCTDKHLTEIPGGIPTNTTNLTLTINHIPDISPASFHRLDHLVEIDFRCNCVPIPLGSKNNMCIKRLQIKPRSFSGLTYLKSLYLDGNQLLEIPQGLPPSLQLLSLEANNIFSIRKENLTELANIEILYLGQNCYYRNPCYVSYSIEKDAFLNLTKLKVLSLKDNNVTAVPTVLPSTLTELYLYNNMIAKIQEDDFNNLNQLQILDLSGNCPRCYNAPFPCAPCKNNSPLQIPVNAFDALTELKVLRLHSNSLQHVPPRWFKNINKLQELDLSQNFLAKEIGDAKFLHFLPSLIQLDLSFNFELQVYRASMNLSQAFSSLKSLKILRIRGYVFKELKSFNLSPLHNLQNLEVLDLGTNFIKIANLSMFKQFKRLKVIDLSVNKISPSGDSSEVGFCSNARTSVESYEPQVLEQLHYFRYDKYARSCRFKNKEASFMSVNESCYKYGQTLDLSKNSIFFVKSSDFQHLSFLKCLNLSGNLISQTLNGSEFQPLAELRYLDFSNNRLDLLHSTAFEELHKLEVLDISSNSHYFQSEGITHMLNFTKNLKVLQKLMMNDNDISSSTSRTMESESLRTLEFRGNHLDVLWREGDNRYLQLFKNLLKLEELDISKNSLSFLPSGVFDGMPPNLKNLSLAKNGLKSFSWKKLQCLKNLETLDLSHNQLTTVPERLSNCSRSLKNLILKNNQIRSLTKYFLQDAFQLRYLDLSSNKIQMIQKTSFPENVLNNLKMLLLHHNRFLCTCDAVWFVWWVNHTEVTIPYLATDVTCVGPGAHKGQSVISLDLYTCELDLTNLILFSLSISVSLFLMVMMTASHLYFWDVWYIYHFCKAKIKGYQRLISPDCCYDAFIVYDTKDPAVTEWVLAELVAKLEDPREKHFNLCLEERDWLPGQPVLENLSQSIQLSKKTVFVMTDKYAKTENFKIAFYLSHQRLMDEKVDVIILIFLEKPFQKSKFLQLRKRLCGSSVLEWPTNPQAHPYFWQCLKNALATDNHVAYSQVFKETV
Procedure, shortened: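 HEK-Blue TLR7 cells (15,000/well) treated with compound for 18 h at 37 °C, 5% CO2. Secreted SEAP measured with Quanti-Blue, 30 min, OD 620 nm. EC50 taken as concentration giving half-maximal response between baseline and maximum.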

[2] = test system: CD69; assay: Induction of CD69 in human whole blood; type: cell-based; conditions: Homo sapiens, 17 h, 100% set to 1 uM of resiquimod, average where assay performed multiple times, read-out: hWB CD69 EC50
Method: The induction of Type I interferon (IFN) MX-1 genes and the B-cell activation marker CD69 are downstream events that occur upon activation of the TLR7 pathway. The following is a human whole blood assay that measures their induction in response to a TLR7 agonist.
Heparinized human whole blood was harvested from human subjects and treated with test TLR7 agonist compounds at 1 mM. The blood was diluted with RPMI 1640 media and Echo was used to predot 10 nL per well giving a final concentration of 1 uM (10 nL in 10 uL of blood). After mixing on a shaker for 30 sec, the plates were covered and placed in a 37° C. chamber for o/n=17 hrs. Fixing/lysis buffer was prepared (5×->1× in H2O, warm at 37° C.; Cat #BD 558049) and kept the perm buffer (on ice) for later use.
For surface markers staining (CD69): prepared surface Abs: 0.045 ul hCD14-FITC (ThermoFisher Cat #MHCD1401)+0.6 ul hCD19-ef450 (ThermoFisher Cat #48-0198-42)+1.5 ul hCD69-PE (cat #BD555531)+0.855 ul FACS buffer. Added 3 ul/well, spin1000 rpm for 1 min and mixed on shaker for 30 sec, put on ice for 30 mins. Stop stimulation after 30 minutes with 70 uL of prewarmed 1× fix/lysis buffer and use Feliex mate to resuspend (15 times, change tips for each plate) and incubate at 37 C for 10 minutes.
Centrifuge at 2000 rpm for 5 minutes aspirate with HCS plate washer, mix on shaker for 30 sec and then wash with 70 uL in dPBS and pelleted 2×s (2000 rpm for 5 min) and 50 ul wash in FACS buffer pelleted 1×s (2000 rpm for 5 min). Mix on shaker for 30 sec. For Intracellular markers staining (MX-1): Add 50 ul of BD Perm buffer III and mix on shaker for 30 sec. Incubate on ice for 30 minutes (in the dark). Wash with 50 uL of FACS buffer 2×(spin @2300 rpm×5 min after perm) followed by mixing on shaker for 30 sec. Resuspended in 20 ul of FACS buffer containing MX1 antibody ( )(4812)-Alexa 647: Novus Biologicals #NBP2-43704AF647) 20 ul FACS bf+0.8 ul hIgG+0.04 ul MX-1. Spin 1000 rpm for 1 min, mix on shaker for 30 se and the samples were incubated at RT in the dark for 45 minutes followed by washing 2×FACS buffer (spin @2300 rpm×5 min after perm). Resuspend 20 ul (35 uL total per well) of FACS buffer and cover with foil and place in 4° C. to read the following day. Plates were read on iQuePlus. The results were loaded into toolset and IC50 curves are generated in curve master. The y-axis 100% is set to 1 uM of resiquimod.

Structure (SMILES): CCCCNc1nc(N)nc2cnn(Cc3ncc(C4CCN(C5CCS(=O)(=O)CC5)CC4)cc3OC)c12 [Compound 116, 4-[4-(6-{[5-amino-7-(butylamino)-1H-pyrazolo[4,3-d]pyrimidin-1-yl]methyl}-5-methoxypyridin-3-yl)piperidin-1-yl]-1λ^6-thiane-1,1-dione]
EC50 [1]: 84.6 nM | EC50 [2]: 10.5 nM

Structure (SMILES): CCCCNc1nc(N)nc2cnn(Cc3ncc(C4CCN(C(=O)CN5CC6(CN(C)C6)C5)CC4)cc3OC)c12 [Compound 117, 1-[4-(6-{[5-amino-7-(butylamino)-1H-pyrazolo[4,3-d]pyrimidin-1-yl]methyl}-5-methoxypyridin-3-yl)piperidin-1-yl]-2-{6-methyl-2,6-diazaspiro[3.3]heptan-2-yl}ethan-1-one]
EC50 [1]: 856 nM | EC50 [2]: 313 nM

Structure (SMILES): CCCCNc1nc(N)nc2cnn(Cc3ncc(C4CCN(C(=O)CN5C[C@@H]6C[C@H]5CN6)CC4)cc3OC)c12 [Compound 118, 1-[4-(6-{[5-amino-7-(butylamino)-1H-pyrazolo[4,3-d]pyrimidin-1-yl]methyl}-5-methoxypyridin-3-yl)piperidin-1-yl]-2-[(1S,4S)-2,5-diazabicyclo[2.2.1]heptan-2-yl]ethan-1-one]
EC50 [1]: 716 nM | EC50 [2]: 890 nM

Structure (SMILES): CCCCNc1nc(N)nc2cnn(Cc3ncc(C4CCN(CC(N)=O)CC4)cc3OC)c12 [Compound 119, 2-[4-(6-{[5-amino-7-(butylamino)-1H-pyrazolo[4,3-d]pyrimidin-1-yl]methyl}-5-methoxypyridin-3-yl)piperidin-1-yl]acetamide]
EC50 [1]: 165 nM | EC50 [2]: 5.1 nM

Structure (SMILES): CCCCNc1nc(N)nc2cnn(Cc3ncc(C4CCN(CC(=O)N(C)C)CC4)cc3OC)c12 [Compound 120, 2-[4-(6-{[5-amino-7-(butylamino)-1H-pyrazolo[4,3-d]pyrimidin-1-yl]methyl}-5-methoxypyridin-3-yl)piperidin-1-yl]-N,N-dimethylacetamide]
EC50 [1]: 79.1 nM | EC50 [2]: 2 nM

Structure (SMILES): CCCCNc1nc(N)nc2c(C)nn(Cc3ncc(C4CCN(C5CCOCC5)CC4)cc3OC)c12 [Compound 121, N7-butyl-1-({3-methoxy-5-[1-(oxan-4-yl)piperidin-4-yl]pyridin-2-yl}methyl)-3-methyl-1H-pyrazolo[4,3-d]pyrimidine-5,7-diamine]
EC50 [1]: 602 nM | EC50 [2]: 122 nM

Structure (SMILES): CCCCNc1nc(N)nc2c(C)nn(Cc3ncc(C4CCN(C(C)C)CC4)cc3OC)c12 [Compound 122, N7-butyl-1-({3-methoxy-5-[1-(propan-2-yl)piperidin-4-yl]pyridin-2-yl}methyl)-3-methyl-1H-pyrazolo[4,3-d]pyrimidine-5,7-diamine]
EC50 [1]: 193 nM | EC50 [2]: 18.7 nM

Structure (SMILES): CCCCNc1nc(N)nc2c(C)nn(Cc3ncc(C4CCN(C)CC4)cc3OC)c12 [Compound 123, N7-butyl-1-{[3-methoxy-5-(1-methylpiperidin-4-yl)pyridin-2-yl]methyl}-3-methyl-1H-pyrazolo[4,3-d]pyrimidine-5,7-diamine]
EC50 [1]: 491 nM | EC50 [2]: 40.2 nM

Structure (SMILES): CCC[C@@H](CCO)Nc1nc(N)nc2cnn(Cc3ncc(C4CCNCC4)cc3OC)c12 [Compound 124, (3S)-3-[(5-amino-1-{[3-methoxy-5-(piperidin-4-yl)pyridin-2-yl]methyl}-1H-pyrazolo[4,3-d]pyrimidin-7-yl)amino]hexan-1-ol]
EC50 [1]: 189 nM | EC50 [2]: 56.9 nM

Structure (SMILES): CCC[C@@H](CCO)Nc1nc(N)nc2cnn(Cc3ncc(C4CCN(CCO)CC4)cc3OC)c12 [Compound 125, (3S)-3-{[5-amino-1-({5-[1-(2-hydroxyethyl)piperidin-4-yl]-3-methoxypyridin-2-yl}methyl)-1H-pyrazolo[4,3-d]pyrimidin-7-yl]amino}hexan-1-ol]
EC50 [1]: 57.8 nM | EC50 [2]: 10.2 nM

Structure (SMILES): CCC[C@@H](CCO)Nc1nc(N)nc2cnn(Cc3ncc(C4CCN(C(C)C)CC4)cc3OC)c12 [Compound 126, (3S)-3-{[5-amino-1-({3-methoxy-5-[1-(propan-2-yl)piperidin-4-yl]pyridin-2-yl}methyl)-1H-pyrazolo[4,3-d]pyrimidin-7-yl]amino}hexan-1-ol]
EC50 [1]: 15.5 nM | EC50 [2]: 2 nM

Structure (SMILES): CCC[C@@H](CCO)Nc1nc(N)nc2cnn(Cc3ncc(C4CCN(C5CCOCC5)CC4)cc3OC)c12 [Compound 127, (3S)-3-{[5-amino-1-({3-methoxy-5-[1-(oxan-4-yl)piperidin-4-yl]pyridin-2-yl}methyl)-1H-pyrazolo[4,3-d]pyrimidin-7-yl]amino}hexan-1-ol]
EC50 [1]: 12.8 nM | EC50 [2]: 2.7 nM

Next, values leading:

EC50 [1]: 48.4 nM | EC50 [2]: 3.5 nM
Structure (SMILES): CCCCNc1nc(N)nc2cnn(Cc3ncc(C4CCN(C(=O)CN(C)C)CC4)cc3OC)c12 [Compound 128, 1-[4-(6-{[5-amino-7-(butylamino)-1H-pyrazolo[4,3-d]pyrimidin-1-yl]methyl}-5-methoxypyridin-3-yl)piperidin-1-yl]-2-(dimethylamino)ethan-1-one]

EC50 [1]: 27.3 nM | EC50 [2]: 7.6 nM
Structure (SMILES): CCCCNc1nc(N)nc2cnn(Cc3ncc(C4CCN(C5CCCC5)CC4)cc3OC)c12 [Compound 129, N7-butyl-1-{[5-(1-cyclopentylpiperidin-4-yl)-3-methoxypyridin-2-yl]methyl}-1H-pyrazolo[4,3-d]pyrimidine-5,7-diamine]

EC50 [1]: 595 nM | EC50 [2]: 972 nM
Structure (SMILES): CCCCNc1nc(N)nc2c(Cl)nn(Cc3ncc(C4CCN(C5CCCC5)CC4)cc3OC)c12 [Compound 131, N7-butyl-3-chloro-1-{[5-(1-cyclopentylpiperidin-4-yl)-3-methoxypyridin-2-yl]methyl}-1H-pyrazolo[4,3-d]pyrimidine-5,7-diamine]

EC50 [1]: 180 nM | EC50 [2]: 195 nM
Structure (SMILES): CCCCNc1nc(N)nc2cnn(Cc3ncc(C4CCN(C=O)CC4)cc3OC)c12 [Compound 132, 4-(6-{[5-amino-7-(butylamino)-1H-pyrazolo[4,3-d]pyrimidin-1-yl]methyl}-5-methoxypyridin-3-yl)piperidine-1-carbaldehyde]

EC50 [1]: 7.6 nM | EC50 [2]: 5.4 nM
Structure (SMILES): CCC[C@@H](CCO)Nc1nc(N)nc2cnn(Cc3ncc(C4CCN(C5COC5)CC4)cc3OC)c12 [Compound 133, (3S)-3-{[5-amino-1-({3-methoxy-5-[1-(oxetan-3-yl)piperidin-4-yl]pyridin-2-yl}methyl)-1H-pyrazolo[4,3-d]pyrimidin-7-yl]amino}hexan-1-ol]

EC50 [1]: 14.1 nM | EC50 [2]: 2.6 nM
Structure (SMILES): CCC[C@@H](CCO)Nc1nc(N)nc2cnn(Cc3ncc(C4CCN(C)CC4)cc3OC)c12 [Compound 134, (3S)-3-[(5-amino-1-{[3-methoxy-5-(1-methylpiperidin-4-yl)pyridin-2-yl]methyl}-1H-pyrazolo[4,3-d]pyrimidin-7-yl)amino]hexan-1-ol]
